These results are taken from ChEMBL document CHEMBL1145293, “Synthesis and SAR of GlyT1 inhibitors derived from a series of N-((4-(morpholine-4-carbonyl)-1-(propylsulfonyl)piperidin-4-yl)methyl)benzamides” (Bioorg Med Chem Lett, 2006).

Each structure is given as a SMILES string. pIC50: −log10 of the molar value.

For orientation: pIC50 means the IC50 on a negative log10 scale, so that one unit is a factor of ten. Low values mean a high IC50, high ones a low IC50.

Assay [1] deals with T1, Sodium- and chloride-dependent glycine transporter 1 (Homo sapiens, UniProt P48067).
T1 sequence (P48067 whole entry): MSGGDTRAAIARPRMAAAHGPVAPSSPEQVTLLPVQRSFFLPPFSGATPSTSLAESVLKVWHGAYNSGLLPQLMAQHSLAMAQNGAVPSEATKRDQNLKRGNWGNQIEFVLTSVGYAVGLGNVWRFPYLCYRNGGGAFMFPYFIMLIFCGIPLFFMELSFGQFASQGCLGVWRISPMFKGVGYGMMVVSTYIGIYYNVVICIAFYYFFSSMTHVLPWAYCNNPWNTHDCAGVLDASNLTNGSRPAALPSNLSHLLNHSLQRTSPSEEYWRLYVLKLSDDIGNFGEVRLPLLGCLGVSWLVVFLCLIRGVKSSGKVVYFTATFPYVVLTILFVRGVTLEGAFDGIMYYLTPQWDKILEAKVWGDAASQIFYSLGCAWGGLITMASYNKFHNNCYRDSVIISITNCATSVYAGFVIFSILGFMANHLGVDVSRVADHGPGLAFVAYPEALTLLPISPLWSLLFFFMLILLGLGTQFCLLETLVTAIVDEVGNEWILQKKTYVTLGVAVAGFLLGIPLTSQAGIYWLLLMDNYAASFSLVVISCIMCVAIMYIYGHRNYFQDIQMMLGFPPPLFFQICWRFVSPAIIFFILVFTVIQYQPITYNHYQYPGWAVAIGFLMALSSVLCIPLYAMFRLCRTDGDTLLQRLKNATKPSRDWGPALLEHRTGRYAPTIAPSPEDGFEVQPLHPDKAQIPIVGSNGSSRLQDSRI
As to the kind of experiment: Inhibition of human GlyT1.

In assay [2] the target is T2, Sodium- and chloride-dependent glycine transporter 1 (Rattus norvegicus, UniProt P28572).
T2 sequence (P28572 whole entry): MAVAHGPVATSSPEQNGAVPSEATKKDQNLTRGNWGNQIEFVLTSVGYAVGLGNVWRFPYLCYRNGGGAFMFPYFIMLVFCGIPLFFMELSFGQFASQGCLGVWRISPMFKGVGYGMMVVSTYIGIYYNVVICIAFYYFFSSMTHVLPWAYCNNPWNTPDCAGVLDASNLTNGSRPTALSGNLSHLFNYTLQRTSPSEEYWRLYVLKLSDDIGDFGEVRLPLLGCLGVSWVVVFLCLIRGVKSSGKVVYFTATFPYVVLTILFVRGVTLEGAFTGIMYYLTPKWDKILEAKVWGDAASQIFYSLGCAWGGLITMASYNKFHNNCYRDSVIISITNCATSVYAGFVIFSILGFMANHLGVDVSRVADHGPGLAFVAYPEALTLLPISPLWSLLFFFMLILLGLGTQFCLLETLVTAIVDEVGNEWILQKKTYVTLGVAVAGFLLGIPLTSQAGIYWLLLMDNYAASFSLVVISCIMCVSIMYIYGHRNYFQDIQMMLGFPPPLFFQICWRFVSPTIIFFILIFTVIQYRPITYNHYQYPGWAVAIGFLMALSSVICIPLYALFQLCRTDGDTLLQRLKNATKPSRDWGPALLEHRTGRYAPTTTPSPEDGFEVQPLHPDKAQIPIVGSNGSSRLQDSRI
The experiment in a line: Inhibition of rat GlyT1.

Take `CCCS(=O)(=O)N1CCC(CNC(=O)c2ccccc2Cl)(C(=O)N2CCOCC2)CC1`: the pIC50 in assay [1] is 8.01; in assay [2], 7.74.
For `CCCS(=O)(=O)N1CCC(CNC(=O)c2c(F)ccc(Cl)c2F)(C(=O)N2CCOCC2)CC1` the same measures were 8.08 and 7.71.
As for `CCCS(=O)(=O)N1CCC(CNC(=O)c2ccc(F)cc2Cl)(C(=O)N2CCOCC2)CC1`, the figures for the pIC50 in assay [1] and in assay [2] were 7.90 and 8.00, respectively.
Consider `CCCS(=O)(=O)N1CCC(CNC(=O)c2cc(F)c(Cl)cc2Cl)(C(=O)N2CCOCC2)CC1`, for which the results for the negative-log IC50 (pIC50) in assay [1] and in assay [2] were 8.20 and 8.13, respectively.
Consider `CCCS(=O)(=O)N1CCC(CNC(=O)c2c(F)cccc2Cl)(C(=O)N2CCOCC2)CC1`, for which the negative-log IC50 (pIC50) was 7.90 in assay [1] and 7.66 in assay [2].
As to `CCCS(=O)(=O)N1CCC(CNC(=O)c2ccc(Cl)cc2Cl)(C(=O)N2CCOCC2)CC1`, the figures for the negative-log IC50 (pIC50) in assay [1] and in assay [2] were 8.62 and 8.49, respectively.
